Assay results as given in patent publication US20260250318A1, “COMPOSITIONS AND METHODS FOR CROSSING THE BLOOD BRAIN BARRIER” (VOYAGER THERAPEUTICS, INC., priority 2022, published 2026).

System: brain
Test: Maturation of TTM-001 capsid, NGS enrichment in brain of CD-1 Outbred mice
Type: in vivo
Details: NGS fold-enrichment of TTM-001 matured AAV capsid variants in the brain of CD-1 Outbred mice; intravenous 1.0×10^12 VG/dose; 14 days in life; RNA; relative to non-matured TTM-001 control
How it was run: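 Pooled matured TTM-001 or TTM-002 capsid libraries (loop IV region randomized by triple-codon or low-frequency point mutagenesis) dosed IV via tail vein at 1.0×10^12 VG/dose to three female CD-1 mice. Brain RNA taken after 14 days; RT-PCR and NGS gave fold enrichment versus parent TTM-001 or TTM-002 control.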

Sequence	Fold enrichment over TTM-001 [fold]
KTINGSGSPHSKAQLVKT	2.376
KRSKGSGSPHSKAQNQQT	2.030
KTINGSGSPHSKAQVSIT	2.028
KTINGSRSPHLFAQNQQT (peptide inserted in AAV capsid)	3.601
KTINGVPSPHWKAQNQQT	2.758
KTINGSGSPHSKAQLFKT	2.385
KTINGSGSPHSKAQRHVT	3.404
KTINGTRSPHTKAQNQQT	2.203
KTINGVASPHRKAQNQQT	2.261
KTINGSGSPHSKPRPQQT	2.352
KTINGSGSPHSKSFRQQT	3.426
KGINGSGSPHGKAQNQQT	2.084
KTINGSGSPHSKAQNVKL	2.024
KTINGSGSPHSKSIRQQT	2.728
KTINGSGSPHSKRMSQQT	2.931
KTINGRSSPHFKAQNQQT	2.428
KTINGNVSPHRKAQNQQT	2.043
KTINGSGSPHSKLPRQQT	2.562
KTINGSGSPHSKASCRQT	2.840
KTINGSGSPHSKARRSQT	3.493
KTINGSGSPHSKALRRQT	4.330
KTINGRPSPHIKAQNQQT	2.155
KTINGSGSPHSTRQNQQT	2.212
KTINGSHSPHRKAQNQQT	2.028

Sequence	Fold enrichment over TTM-001 [fold]
KTINGTSSPHCKAQNQQT	2.017
KTINGSGSPHSKAQWVLT	2.052
KTINGSGSPHSKRLTQQT	2.363
KDLRGSGSPHSKAQNQQT	2.238
KTINGSGSPHSKAFPRQT	3.220
KTINGSGSPHSYRPNQQT	3.095
KTINGSGSPHSKAQATRT	2.019
KTINGSGSPHSKAQANRT	2.255
KTINGSVSPHSWAQNQQT (peptide inserted in AAV capsid)	2.562
KTINGSGSPHSKLVRQQT	2.801
KTINGSGSPHSKIRPQQT	2.080
KTINGSGSPHSKAWILQT	2.004
KTINGSGSPHSKAQVVLT	2.438
KTINGRSSPHRKAQNQQT	2.965
KTINGSGSPHSKTRLQQT	2.145
KTINGSGSPHVRRQNQQT	4.114
KTINGSGSPHSRKLNQQT	3.646
KPLRGSGSPHSKAQNQQT	2.486
KTINGSGSPHSFLVNQQT	2.624
KTINGSGSPHSKAQNRKL	2.084
KTINGSGSPHSKAQMVRT	2.426
KTINGNLSPHRKAQNQQT	2.250
KTINGSGSPHSKRGTQQT	2.022
KTINGSGSPHSLCQNQQT	2.285

Sequence	Fold enrichment over TTM-001 [fold]
KTINGSGSPHSKRFLQQT	3.359
KEIKGSGSPHSKAQNQQT	2.140
KTINGSGSPHCSAQNQQT	2.339
KTINGSGSPHSKRLMQQT	2.345
KTINGYSSPHRKAQNQQT	2.007
KTINGWRSPHSKAQNQQT	2.160
KTINGSGSPHSKLWLQQT	3.199
KTINGTRSPHAKAQNQQT	2.071
KTINGSGSPHSKPRVQQT	2.441
KTINGSGSPHCLLQNQQT	4.898
KTINGSLSPHYMAQNQQT	2.015
KTINGSGSPHRFKQNQQT	2.223
KTINGSGSPHSRYSNQQT	2.536
KTINGSGSPHSKASKQQT	2.069
KTINGSGSPHSKAQNKRS	2.214
KTINGSGSPHSKARSRQT	2.972
KTINGSSSPHSWAQNQQT (peptide inserted in AAV capsid)	2.119
KTINGSGSPHSKAQRLWT	2.611
KTINGSGSPHSKASKRQT	4.117
KTINGSGSPHSKALWRQT	2.015
KTINGSGSPHSKSCAQQT	2.348
KTINGSGSPHSKAQKRST	2.151
KTINGSGSPHSRLRNQQT	3.851
KTINGSGSPHSKARGQQT	2.039

Sequence	Fold enrichment over TTM-001 [fold]
KTINGSGSPHSFARNQQT	2.367
KTINGSGSPHSKVGRQQT	3.255
KTINGSGSPHIYLQNQQT	2.542
KTINGSGSPHSKRSNQQT	2.886
KTINGMRSPHGKAQNQQT	2.527
KTINGSGSPHSKASRRQT	3.577
KTINGSGSPHSKARSKQT	2.758
KTINGLVSPHCKAQNQQT	2.605
KTINGSGSPHSKAQFSRT	2.847
KTINGSGSPHLWTQNQQT	3.034
KTINGSGSPHSKAQRKLT	4.339
KTINGSVSPHYVAQNQQT (peptide inserted in AAV capsid)	2.022
KTINGSGSPHSKAQHSRT	3.227
KTINGSGSPHSKAHRQQT	2.117
KTINGIRSPHTKAQNQQT	2.793
KTINGSGSPHSKYPSQQT	3.114
KTINGSGSPHSKAQKRLT	3.872
KTINGSGSPHSKAQRRLT	4.227
KTINGSCSPHRKAQNQQT	4.801
KTINGSMSPHRKAQNQQT	2.251
KTINGSGSPHSKATRHQT	2.777
KTINGSGSPHSKAQGVRT	2.188
KTINGSGSPHRRMQNQQT	2.004
KTINGSCSPHSGAQNQQT	2.994

Sequence	Fold enrichment over TTM-001 [fold]
KTINGSGSPHSKAQTFRT	2.847
KTINGSGSPHSKAQTTRT	2.385
KTRSRSGSPHSKAQNQQT	3.669
KTINGPLSPHCKAQNQQT	2.194
KTINGSRSPHSKAQNRQT (peptide inserted in AAV capsid)	2.155
KTINGSGSPHRRRQNQQT	3.754
KTINGSGSPHSKVIRQQT	2.760
KTINGSGSPHLKRQNQQT	2.564
KTINGSGSPHSKRNVQQT	2.404
KTINGSGSPHSKARITQT	2.525
KTIRLRGSPHSKAQNQQT	2.408
KTINGSGSPHSKTRAQQT	2.223
KTINGSGSPHSYSRNQQT	2.196
KTINGSGSPHSLFPNQQT	2.106
KTINGSGSPHSWLSNQQT	3.495
KTRKSSGSPHSKAQNQQT	2.065
KTINGSGSPHSKFSCQQT	2.348
KTINGSGSPHSKASRGQT	2.182
KTINGSGSPHSKAKSRQT	2.739
KTINGSGSPHSKRLAQQT	2.397
